Results on 14 compounds are retold here after PubChem BioAssay AID248 (DTP/NCI, 2004).

Several values for one entry are separate records, joined by “and”; a condition that tells them apart may be missing. Equal entries are not always repeated. Inconclusive results and toxic doses are left out.

This test has as its system L1210 leukemia ip in BDF1 mice, survival T/C. The test can be described thus: NCI In Vivo Anticancer Drug Screen. Data for tumor model L1210 Leukemia (intraperitoneal) in B6D2F1 (BDF1) mice. The note with it: endpoint: mean survival time, higher = longer survival. In short, it runs like this:
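Mice bearing the transplanted tumor received compound or vehicle. Survival of the treated group was divided by that of the vehicle-treated control group to give the ratio.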

The mark [1] stands for this setting: dose: 100.0 mg/kg/injection, schedule: Q04DX003 (ip), vehicle: saline with Tween-80.
Where [2] appears, read: dose: 200.0 mg/kg/injection, schedule: Q04DX003 (ip), vehicle: saline with Tween-80.
Where [3] appears, read: dose: 100.0 mg/kg/injection, schedule: Q01DX001 (ip), vehicle: carboxymethylcellulose (CMC).
Where [4] appears, read: dose: 200.0 mg/kg/injection, schedule: Q01DX001 (ip), vehicle: carboxymethylcellulose (CMC).
Where [5] appears, read: dose: 400.0 mg/kg/injection, schedule: Q01DX001 (ip), vehicle: carboxymethylcellulose (CMC).
The mark [6] stands for this setting: dose: 400.0 mg/kg/injection, schedule: Q04DX003 (ip), vehicle: saline with Tween-80.
Setting [7] is: dose: 12.5 mg/kg/injection, schedule: Q01DX009 (ip), vehicle: Klucel (hydroxypropylcellulose) (HPC).
Setting [8] is: dose: 100.0 mg/kg/injection, schedule: Q04DX003 (ip), vehicle: saline.

As for `CCc1ccc(/C(C#N)=C/C=C/c2ccccc2)cc1`, the T/C by setting is: (dose: 100.0 mg/kg/injection, schedule: Q04DX002 (ip), vehicle: Klucel (hydroxypropylcellulose) (HPC)) 112 % of control; (dose: 200.0 mg/kg/injection, schedule: Q04DX002 (ip), vehicle: Klucel (hydroxypropylcellulose) (HPC)) 102 % of control; (dose: 400.0 mg/kg/injection, schedule: Q04DX002 (ip), vehicle: Klucel (hydroxypropylcellulose) (HPC)) 97 % of control.

With `O=[N+]([O-])c1cccc(N(CCF)CCF)c1`, the T/C runs as follows: (dose: 5.0 mg/kg/injection, schedule: Q01DX001 (ip), vehicle: carboxymethylcellulose (CMC)) 103 % of control; (dose: 10.0 mg/kg/injection, schedule: Q01DX001 (ip), vehicle: carboxymethylcellulose (CMC)) 103 % of control; (dose: 20.0 mg/kg/injection, schedule: Q01DX001 (ip), vehicle: carboxymethylcellulose (CMC)) 112 % of control.

As to `O=c1ccc(=O)n(-c2ccc(Cl)cc2)[nH]1`, the T/C is 103 % of control (dose: 50.0 mg/kg/injection, schedule: Q04DX003 (ip), vehicle: saline with Tween-80); 104 % of control under setting [1]; 98 % of control under setting [2].

As to `CCN(CC)C(=O)N1CCCCC1`, the T/C is 101 % of control (dose: 100.0 mg/kg/injection, schedule: Q01DX009 (ip), vehicle: saline); 97 % of control (dose: 100.0 mg/kg/injection, schedule: Q04DX002 (ip), vehicle: saline); 92 % of control (dose: 200.0 mg/kg/injection, schedule: Q01DX009 (ip), vehicle: saline); 100 % of control (dose: 200.0 mg/kg/injection, schedule: Q04DX002 (ip), vehicle: saline); 95 % of control (dose: 400.0 mg/kg/injection, schedule: Q04DX002 (ip), vehicle: saline).

As to `N#CC(C(N)=O)n1cnc(C(N)=O)c1N` (configuration not stated), the T/C under setting [3] is 97 % of control, the T/C under setting [4] is 94 % of control and the T/C under setting [5] is 96 % of control.

Turning to `O=C(O)/C=C/c1ccc(C(NC(=O)N2C(=O)C=CC2=O)NC(=O)N2C(=O)C=CC2=O)cc1`, the T/C reads like this: under setting [3], 100 % of control; under setting [4], 95 % of control; under setting [5], 97 % of control.

Consider `COC(=O)C(CCC(=O)C=[N+]=N)NC(=O)C(Cl)Cl` (configuration not stated), for which the T/C (dose: 35.0 mg/kg/injection, schedule: Q01DX001 (ip), vehicle: saline) is 122 % of control; the T/C (dose: 75.0 mg/kg/injection, schedule: Q01DX001 (ip), vehicle: saline) was 122 % of control; the T/C (dose: 125.0 mg/kg/injection, schedule: Q01DX001 (ip), vehicle: saline) was 111 % of control; the T/C under setting [2] was 167 % of control; the T/C (dose: 266.0 mg/kg/injection, schedule: Q01DX001 (ip), vehicle: saline) is 98 % of control; the T/C under setting [6] was 124 % of control. Besides, the T/C (dose: 600.0 mg/kg/injection, schedule: Q01DX001 (ip), vehicle: saline) is 117 % of control.

With `CC[N+](C)(CC)CCSC(=O)Nc1ccc(Cc2ccc(NC(=O)SCC[N+](C)(CC)CC)cc2)cc1`, the T/C (dose: 10.0 mg/kg/injection, schedule: Q04DX003 (ip), vehicle: Klucel (hydroxypropylcellulose) (HPC)) was 96 % of control; the T/C under setting [7] was 103 % of control; the T/C (dose: 20.0 mg/kg/injection, schedule: Q04DX003 (ip), vehicle: Klucel (hydroxypropylcellulose) (HPC)) is 96 % of control.

With `CC(C)(C)C1SCC(=NNc2ccc([N+](=O)[O-])cc2[N+](=O)[O-])CS1` (configuration not stated), the T/C is, setting by setting: (dose: 12.5 mg/kg/injection, schedule: Q04DX002 (ip), vehicle: gum acacia) 95 % of control; (dose: 25.0 mg/kg/injection, schedule: Q04DX002 (ip), vehicle: gum acacia) 98 % of control; (dose: 50.0 mg/kg/injection, schedule: Q04DX002 (ip), vehicle: gum acacia) 95 % of control.

For the compound `O=c1[nH]c2ccsc2c(=O)n1O`, the T/C was 102 % of control under setting [8] and 97 % of control (dose: 200.0 mg/kg/injection, schedule: Q04DX003 (ip), vehicle: saline).

Regarding `CC(c1ccccc1)n1cnc2c(=O)[nH]cnc21` (configuration not stated), the T/C (dose: 50.0 mg/kg/injection, schedule: Q01DX001 (ip), vehicle: carboxymethylcellulose (CMC)) is 106 % of control; the T/C under setting [3] was 101 % of control; the T/C under setting [4] was 101 % of control; the T/C under setting [5] is 95 % of control.

Take `C=COCC(C)C` (tested in a mixture with another compound): the T/C is, setting by setting: (dose: 1.56 mg/kg/injection, schedule: Q01DX001 (ip), vehicle: other) 94 % of control; (dose: 3.12 mg/kg/injection, schedule: Q01DX001 (ip), vehicle: other) 91 % of control; (dose: 3.12 mg/kg/injection, schedule: Q01DX009 (ip), vehicle: other) 109 % of control; (dose: 3.12 mg/kg/injection, schedule: Q04DX003 (ip), vehicle: Klucel (hydroxypropylcellulose) (HPC)) 97 % of control; (dose: 3.13 mg/kg/injection, schedule: Q04DX003 (ip), vehicle: saline) 92 % of control; (dose: 4.7 mg/kg/injection, schedule: Q01DX009 (ip), vehicle: saline) 104 % of control. Further, the T/C runs as follows: (dose: 6.25 mg/kg/injection, schedule: Q01DX001 (ip), vehicle: other) 96 % of control; (dose: 6.25 mg/kg/injection, schedule: Q01DX009 (ip), vehicle: Klucel (hydroxypropylcellulose) (HPC)) 107 % of control; (dose: 6.25 mg/kg/injection, schedule: Q01DX009 (ip), vehicle: other) 98 % of control; (dose: 6.25 mg/kg/injection, schedule: Q04DX003 (ip), vehicle: Klucel (hydroxypropylcellulose) (HPC)) 114 % of control; (dose: 6.25 mg/kg/injection, schedule: Q04DX003 (ip), vehicle: saline) 94 % of control; (dose: 7.09 mg/kg/injection, schedule: Q01DX009 (ip), vehicle: Klucel (hydroxypropylcellulose) (HPC)) 107 % of control. Moreover, the T/C was 102 % of control (dose: 9.4 mg/kg/injection, schedule: Q01DX009 (ip), vehicle: saline); 107 % of control (dose: 10.6 mg/kg/injection, schedule: Q01DX009 (ip), vehicle: Klucel (hydroxypropylcellulose) (HPC)); 93 % of control under setting [7]; 111 % of control (dose: 12.5 mg/kg/injection, schedule: Q04DX003 (ip), vehicle: Klucel (hydroxypropylcellulose) (HPC)); 109 % of control (dose: 15.0 mg/kg/injection, schedule: Q01DX001 (ip), vehicle: saline); 88 % of control (dose: 25.0 mg/kg/injection, schedule: Q04DX003 (ip), vehicle: Klucel (hydroxypropylcellulose) (HPC)). The T/C is, setting by setting: (dose: 30.0 mg/kg/injection, schedule: Q01DX001 (ip), vehicle: saline) 112 % of control; (dose: 60.0 mg/kg/injection, schedule: Q01DX001 (ip), vehicle: saline) 95 % of control; (dose: 75.0 mg/kg/injection, schedule: Q01DX001 (ip), vehicle: carboxymethylcellulose (CMC)) 95 % of control; (dose: 75.0 mg/kg/injection, schedule: Q04DX003 (ip), vehicle: saline) 108 % of control and 110 % of control; (dose: 100.0 mg/kg/injection, schedule: Q01DX001 (ip), vehicle: other) 106 % of control and 94 % of control; (dose: 150.0 mg/kg/injection, schedule: Q01DX001 (ip), vehicle: carboxymethylcellulose (CMC)) 114 % of control. For the same compound, the T/C is 98 % of control (dose: 150.0 mg/kg/injection, schedule: Q04DX003 (ip), vehicle: saline); 100 % of control (dose: 300.0 mg/kg/injection, schedule: Q01DX001 (ip), vehicle: carboxymethylcellulose (CMC)); 92 % of control (dose: 400.0 mg/kg/injection, schedule: Q01DX001 (ip), vehicle: Klucel (hydroxypropylcellulose) (HPC)).

On to `OCC1(CO)CC=CCC1`, for which the T/C (dose: 25.0 mg/kg/injection, schedule: Q04DX003 (ip), vehicle: saline) is 95 % of control; the T/C (dose: 50.0 mg/kg/injection, schedule: Q04DX003 (ip), vehicle: saline) is 105 % of control; the T/C under setting [3] was 103 % of control; the T/C under setting [8] is 94 % of control and 89 % of control; the T/C under setting [4] was 95 % of control; the T/C under setting [5] was 103 % of control.

Regarding `CC(C)=CCCC(C)C/C=N\O` (configuration not stated), the T/C by setting is: (dose: 100.0 mg/kg/injection, schedule: Q01DX009 (ip), vehicle: saline with Tween-80) 101 % of control; under setting [1], 100 % of control; (dose: 200.0 mg/kg/injection, schedule: Q01DX009 (ip), vehicle: saline with Tween-80) 104 % of control; under setting [2], 103 % of control; under setting [6], 106 % of control.
